Earlier results, collected in US10561697B2, “Compositions based on saffron for the prevention and/or treatment of degenerative eye disorders” (Hortus Novus SRL, priority 2014, dated 2020).

Assays:
rats exposed to light = details: diet added with 0.2% of curcumin
[1] = system: rats affected by the P23H mutation in the rhodopsin gene; details: 100 mg/kg

COc1cc(/C=C/C(=O)CC(=O)/C=C/c2ccc(O)c(OC)c2)ccc1O [curcumin]
onset of retinal oxidative and inflammatory stress (rats exposed to light): reduction in the onset of retinal oxidative and inflammatory stress
formation of rhodopsin aggregates [1]: active in inhibiting the formation of rhodopsin aggregates
morphology of the retina, photoreceptors preservation ([1]; transgenic rats): improvement in the morphology of the retina
